The target of data set [1] is T1, Novosphingobium aromaticivorans ATCC 700278 P450scc CYP204A1, wild type, SEQ ID NO: 23 (Novosphingobium aromaticivorans, UniProt A4XF07).
T1 sequence (A4XF07 1-473): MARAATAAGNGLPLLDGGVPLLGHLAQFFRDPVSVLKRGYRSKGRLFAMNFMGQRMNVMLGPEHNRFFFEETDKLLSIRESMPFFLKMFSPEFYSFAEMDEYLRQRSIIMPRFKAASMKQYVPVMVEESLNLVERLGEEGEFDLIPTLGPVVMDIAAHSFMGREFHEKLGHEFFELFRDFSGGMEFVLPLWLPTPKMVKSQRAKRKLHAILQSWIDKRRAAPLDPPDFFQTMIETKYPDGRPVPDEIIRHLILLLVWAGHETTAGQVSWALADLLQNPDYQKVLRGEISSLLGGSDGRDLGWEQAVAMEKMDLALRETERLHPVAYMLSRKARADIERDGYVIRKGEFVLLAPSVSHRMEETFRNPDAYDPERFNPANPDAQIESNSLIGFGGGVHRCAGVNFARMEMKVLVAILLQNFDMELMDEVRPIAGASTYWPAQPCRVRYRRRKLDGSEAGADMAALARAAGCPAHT
Description: Kinetics analysis of CYP204A1 with 4-cholesten-3-one (conversion to progesterone, cell-free extract).

Substrate in data set [2]: CC(C)CCC[C@@H](C)[C@H]1CC[C@H]2[C@@H]3CCC4=CC(=O)CC[C@]4(C)[C@H]3CC[C@]12C
Put plainly: purified protein, by the assay type. The following applies: other: 4-cholesten-3-one 0.1 to 500 μM, pH 7.5, 15° C., 60 minutes, Lineweaver-Burk plot.

One may read the Km as the concentration of substrate that gives half-maximal velocity.

In the case of `CC(C)CCC[C@@H](C)[C@H]1CC[C@H]2[C@@H]3CCC4=CC(=O)CC[C@]4(C)[C@H]3CC[C@]12C` [4-cholesten-3-one], the Vmax in data set [1] (4-cholesten-3-one 0.1 to 500 μM, pH 7.5, 15° C., 60 minutes, Lineweaver-Burk plot) worked out at 47.4 mmol/min/mol. Besides, the “Vmax, relative activity” value in data set [1] (relative to CYP204A1 (1.00)) is reported as 1.00. For the same molecule, the “decrease rate of the enzyme protein activity (substrate inhibition)” value in data set [1] (substrate concentration increased from 10 μM to 100 μM, pH 7.5, 15° C.) came out at 33%.

B1: Sphingomonas subterranea NBRC16086 P450scc CYPSS204A (CYPSS), wild type, SEQ ID NO: 2 (Novosphingobium subterraneum) (protein)
chain: MASAAAGADGLPLLDGGVPLLGHLAQFFRDPVSVLKRGYRSKGRLFAMNFMGQRMNVMLGPEHNRFFFEETDKLLSIRESMPFFLKMFSPEFYSFAEMDEYLRQRAIIMPRFKAASMKQYVPVMVEESLNLVERLGEEGEFDLIPTLGPVVMDIAAHSFMGREFHEKLGHEFFELFRDFSGGMEFVLPLWLPTPKMVKSQRAKKKLHAILQSWIDKRRASPLDPPDFFQTMIETKYPDGRAVPDEIIRHLILLLVWAGHETTAGQVSWALADLLQNPGYQQVLREEVASLLGGSDGRALGWEQAVAMEKMDLALRETERLHPVAYMLSRKASADIERDGYRIRKGEFVLLAPSVSHRMEETFRNADAYDPERFNPQNPDAQIESNSLIGFGGGVHRCAGVNFARMEMKVLVAILLQNFDMELIDEVRPIAGASTYWPAQPCRVRYKRRKLDGAGGSADVAALAKAAGCPAHA
Take B1: the Km in data set [2] is 1.1 µM.
